From PMC9458059, “Design, Synthesis and Biological Evaluation of New Carbohydrate-Based Coumarin Derivatives as Selective Carbonic Anhydrase IX Inhibitors via “Click” Reaction” (Molecules, 2022)
Like-named read-outs stand apart in the source and are kept apart here.

How the values were obtained:
hCA I = molecular target: T1, hCA I (Homo sapiens, UniProt P00915); assay: CA inhibition by the esterase assay, hCA I; type: biochemical; conditions: human recombinant enzyme, 4-nitrophenylacetate as substrate
T1 construct: purchased
Method: (§1) The esterase assay was used for testing the inhibitory activities of target compounds against carbonic anhydrases. […] Next, the stock solution of inhibitor was diluted to the specified concentration by using analysis buffer. […] In addition, the purchased CA was diluted with analysis buffer and added to 96-well plates. Next, different concentrations of inhibitors were also added to 96-well plates. To form the inhibitors and enzymes complex, E-I solutions were preincubated together for 4 h before the test at room temperature. Meanwhile, the nonenzymatic hydrolysis rates were tested by the blank control experiments. The absorbances were determined by using multifunctional enzyme marking instrument.

hCA II = hCA II (Homo sapiens, UniProt P00918); assay: CA inhibition by the esterase assay, hCA II; type: biochemical; conditions: human recombinant enzyme, 4-nitrophenylacetate as substrate
Method: as §1

hCA IX = molecular target: T2, hCA IX (Homo sapiens, UniProt Q16790); assay: CA inhibition by the esterase assay, hCA IX; type: biochemical; conditions: for IC50: human recombinant enzyme, esterase assay, 4-nitrophenylacetate as substrate; for Selectivity Ratio hCA I/hCA IX / Selectivity Ratio hCA II/hCA IX: ratio of IC50 values
T2 construct: purchased
Method: as §1

HT-29 cells = assay: Cell viability MTT assay, HT-29; type: cell-based; conditions: Homo sapiens
Method: (§2) In the present study, the potential cytotoxicity of compounds 10a–10p was evaluated in vitro by MTT assay. […] So, half of each cell line were subjected to hypoxic conditions (0.5% O2, 5% CO2 and 94.5% N2) for inducing the expression of CA IX and the other half were incubated under normal conditions (normoxia). Subsequently, all synthesized derivatives were screened at a concentration of 100 μM to test their cytotoxicity in mentioned above cells.
(§3) The two human cancer cell lines were cultivated for 24 h at 37 °C in a 96-well plate. Subsequently, different concentrations of inhibitors were added to 96-well plate and then was incubated for 96 hours. After the MTT solution was added to per well, cancer cells were further incubated for 4 h at 37 °C. Finally, formazan crystals were dissolved by using DMSO. The cancer cells were from American Type Culture Collection.

MDA-MB-231 cells = assay: Cell viability MTT assay, MDA-MB-231; type: cell-based; conditions: Homo sapiens
Method: as §2, §3

[1] = Metabolic stability in mouse liver microsomes; conditions: mouse, liver microsomes
[2] = hypoxia (0.5% O2, 5% CO2 and 94.5% N2), read-out: Cell Viability (%) HT-29 Hypoxia
[3] = normoxia, read-out: Cell Viability (%) HT-29 Normoxia
[4] = hypoxia (0.5% O2, 5% CO2 and 94.5% N2), read-out: Cell Viability (%) MDA-MB-231 Hypoxia
[5] = normoxia, read-out: Cell Viability (%) MDA-MB-231 Normoxia

T1 sequence (P00915 whole entry): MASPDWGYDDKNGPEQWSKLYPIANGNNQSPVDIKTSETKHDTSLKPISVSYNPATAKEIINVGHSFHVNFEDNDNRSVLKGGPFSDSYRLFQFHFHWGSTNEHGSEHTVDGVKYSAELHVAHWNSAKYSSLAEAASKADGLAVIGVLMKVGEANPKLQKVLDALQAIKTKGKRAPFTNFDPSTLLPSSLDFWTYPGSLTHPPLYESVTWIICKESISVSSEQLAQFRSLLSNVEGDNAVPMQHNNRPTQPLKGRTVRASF

Compound	IC50 (hCA I) [µM]	IC50 (hCA II) [µM]	IC50 (hCA IX) [µM]	Selectivity Ratio hCA I/hCA IX (hCA IX)	Selectivity Ratio hCA II/hCA IX (hCA IX)	viability at 100 µM (HT-29 cells; [2]) [%]	viability at 100 µM (HT-29 cells; [3]) [%]	viability at 100 µM (MDA-MB-231 cells; [4]) [%]	viability at 100 µM (MDA-MB-231 cells; [5]) [%]	melting point [°C]	CLint scaled at 1 μM [1] [mL/min/kg]	half-life at 1 μM [1] [h]
C[C@@H]1O[C@H](n2cc(COc3ccc4ccc(=O)oc4c3)nn2)[C@H](O)[C@H](O)[C@H]1O [Compound 10g, 7-[(1-β-. L-rhamnosyl-1H-1,2,3-triazol-4-yl)methoxy]-2H-chromen-2-one]	36.5	31.6	0.124	294	255	38.7	42.4	36.1	53.2	126.1 to 129.6	3.65	25
Cc1cc(=O)oc2cc(OCc3cn([C@@H]4O[C@H](CO)[C@@H](O)[C@H](O)[C@@H]4O)nn3)ccc12 [Compound 10k, 7-[(1-β-. D-mannopyranosyl-1H-1,2,3-triazol-4-yl)methoxy]-4-methyl-2H-chromen-2-one]	49	23	0.042	1167	548	40.3	52.3	33.7	61.3	121.5 to 122.6	3.25	28.1
Cc1cc(=O)oc2cc(OCc3cn([C@@H]4O[C@H](CO)[C@@H](O)[C@H](O)[C@H]4N)nn3)ccc12 [Compound 10l, 7-[(1-β-. D-glucosaminogly-1H-1,2,3-triazol-4-yl)methoxy]-4-methyl-2H-chromen-2-one]	56.9	31.4	0.032	1778	981	44.8	51.2	38.5	65.1	126.2 to 128.4	3.07	29.8
O=c1ccc2ccc(OCc3cn([C@@H]4OC[C@H](O)[C@H](O)[C@H]4O)nn3)cc2o1 [Compound 10f, 7-[(1-β-. L-arabinopyranosyl-1H-1,2,3-triazol-4-yl)methoxy]-2H-chromen-2-one]	65.6	31.7	0.042	1562	755	38.1	48.7	33.8	65.6	133.1 to 135.1	3.75	24.4
Cc1cc(=O)oc2cc(OCc3cn([C@@H]4O[C@H](CO)[C@H](O)[C@H](O)[C@H]4O)nn3)ccc12 [Compound 10j, 7-[(1-β-. D-galactopyranosyl-1H-1,2,3-triazol-4-yl)methoxy]-4-methyl-2H-chromen-2-one]	44.1	16.1	0.098	450	164	46.4	60.2	40.9	64.7	124.2 to 126.6	3.5	26.1
Cc1cc(=O)oc2cc(OCc3cn([C@@H]4O[C@H](CO)[C@@H](O)[C@H](O)[C@H]4O)nn3)ccc12 [Compound 10i, 7-[(1-β-. D-glucopyranosyl-1H-1,2,3-triazol-4-yl)methoxy]-4-methyl-2H-chromen-2-one]	32.1	14	0.084	382	167	42.6	48.5	33.2	65.2	127.9 to 130.2	3.83	23.9
Cc1cc(=O)oc2cc(OCc3cn([C@H]4O[C@@H](C)[C@H](O)[C@@H](O)[C@H]4O)nn3)ccc12 [Compound 10o, 7-[(1-β-. L-rhamnosyl-1H-1,2,3-triazol-4-yl)methoxy]-4-methyl-2H-chromen-2-one]	57.5	32.1	0.096	599	334	33.3	45.7	38.7	60.3	125.5 to 127.7	3.13	29.2
O=c1ccc2ccc(OCc3cn([C@@H]4OC[C@@H](O)[C@H](O)[C@H]4O)nn3)cc2o1 [Compound 10e, 7-[(1-β-. D-xylopyranosyl-1H-1,2,3-triazol-4-yl)methoxy]-2H-chromen-2-one]	42.3	21	0.061	693	344	39.5	49.3	42.9	58.2	128.4 to 130.6	4.04	22.6
Cc1cc(=O)oc2cc(OCc3cn([C@@H]4OC[C@H](O)[C@H](O)[C@H]4O)nn3)ccc12 [Compound 10n, 7-[(1-β-. L-arabinopyranosyl-1H-1,2,3-triazol-4-yl)methoxy]-4-methyl-2H-chromen-2-one]	35.7	12.2	0.045	793	271	38.2	41.5	38.5	65.7	129.3 to 132.5	3.56	25.7
CC(=O)Nc1nnc(S(N)(=O)=O)s1 [AAZ, acetazolamide, reference compound]						80.1	85.2	80.3	84.7			
O=c1ccc2ccc(OCc3cn([C@@H]4O[C@H](CO)[C@H](O)[C@H](O)[C@H]4O)nn3)cc2o1 [Compound 10b, 7-[(1-β-. D-galactopyranosyl-1H-1,2,3-triazol-4-yl)methoxy]-2H-chromen-2-one]	24.3	31.3	0.074	328	423	48.7	50.5	33.7	61.4		4.33	21.1
